In ChEMBL document CHEMBL4387741, “Optimization of novel reversible Bruton's tyrosine kinase inhibitors identified using Tethering-fragment-based screens” (Bioorg Med Chem, 2019):

Legend:
[1] = biological target: Tyrosine-protein kinase Blk (Homo sapiens) (UniProt P51451); experiment: Inhibition of wild-type human partial length BLK (G211 to L503 residues) expressed in bacterial expression system at 1 uM by Kinomescan method relative to control
[2] = biological target: MAP kinase-activated protein kinase 2 (Homo sapiens) (UniProt P49137); experiment: Inhibition of wild-type human partial length MAPKAPK2 (V48 to D345 residues) expressed in bacterial expression system at 1 uM by Kinomescan method relative to control
[3] = biological target: SRSF protein kinase 1 (Homo sapiens) (UniProt Q96SB4); experiment: Inhibition of wild-type human full length SRPK1 (M1 to S655 residues) expressed in bacterial expression system at 1 uM by Kinomescan method relative to control
[4] = biological target: Tyrosine-protein kinase ZAP-70 (Homo sapiens) (UniProt P43403); experiment: Inhibition of wild-type human partial length ZAP70 (D20 to G299 residues) expressed in mammalian expression system at 1 uM by Kinomescan method relative to control
[5] = biological target: Tyrosine-protein kinase BTK (Homo sapiens, UniProt Q06187); experiment: biochemical
Description: Reversible inhibition of recombinant full-length N-terminal 6-His-tagged human BTK expressed in baculovirus infected Sf21 insect cells using fluorescent-labeled polyGAT peptide as substrate incubated for 30 mins by TR-FRET assay

[6] = tested on: Phosphatidylinositol 4,5-bisphosphate 3-kinase catalytic subunit alpha isoform (Homo sapiens), P42336 [Q546K]; experiment: Inhibition of human partial length PIK3CA Q546K mutant (R108 to N1068 residues) expressed in mammalian expression system at 1 uM by Kinomescan method relative to control
[7] = biological target: Ribosomal protein S6 kinase alpha-2 (Homo sapiens) (UniProt Q15349); experiment: Inhibition of wild-type human partial length C-terminal RSK3 kinase domain 2 (V403 to K700 residues) expressed in bacterial expression system at 1 uM by Kinomescan method relative to control
[8] = biological target: Serine/threonine-protein kinase NLK (Homo sapiens) (UniProt Q9UBE8); experiment: Inhibition of wild-type human full length NLK (M13 to E527 residues) expressed in bacterial expression system at 1 uM by Kinomescan method relative to control
[9] = biological target: Tyrosine-protein kinase Fyn (Homo sapiens) (UniProt P06241); experiment: Inhibition of wild-type human partial length FYN (T243 to L534 residues) expressed in bacterial expression system at 1 uM by Kinomescan method relative to control
[10] = biological target: Tyrosine-protein kinase receptor UFO (Homo sapiens) (UniProt P30530); experiment: Inhibition of wild-type human partial length AXL (R497 to Y821 residues) expressed in bacterial expression system at 1 uM by Kinomescan method relative to control
[11] = biological target: G protein-coupled receptor kinase 3 (Homo sapiens) (UniProt P35626); experiment: Inhibition of wild-type human full length GRK3 (M1 to L688 residues) expressed in mammalian expression system at 1 uM by Kinomescan method relative to control
[12] = biological target: Serine/threonine-protein kinase B-raf (Homo sapiens) (UniProt P15056); experiment: Inhibition of wild-type human partial length BRAF (S429 to E741 residues) expressed in mammalian expression system at 1 uM by Kinomescan method relative to control
[13] = biological target: Mitogen-activated protein kinase kinase kinase 10 (Homo sapiens) (UniProt Q02779); experiment: Inhibition of wild-type human partial length MLK2 (V52 to W380 residues) expressed in bacterial expression system at 1 uM by Kinomescan method relative to control
[14] = biological target: Tyrosine-protein kinase Fes/Fps (Homo sapiens) (UniProt P07332); experiment: Inhibition of wild-type human partial length FES (I527 to R822 residues) expressed in bacterial expression system at 1 uM by Kinomescan method relative to control
[15] = biological target: SRSF protein kinase 3 (Homo sapiens) (UniProt Q9UPE1); experiment: Inhibition of wild-type human partial length SRPK3 (P41 to P567 residues) expressed in bacterial expression system at 10 uM by Kinomescan method relative to control
[16] = biological target: Serine/threonine-protein kinase PLK4 (Homo sapiens) (UniProt O00444); experiment: Inhibition of wild-type human partial length PLK4 (M1 to S273 residues) expressed in mammalian expression system at 10 uM by Kinomescan method relative to control
[17] = biological target: Macrophage colony-stimulating factor 1 receptor (Homo sapiens) (UniProt P07333); experiment: Inhibition of wild-type human partial length CSF1R (I564 to S939 residues) expressed in bacterial expression system at 10 uM by Kinomescan method relative to control
[18] = biological target: Protein kinase C eta type (Homo sapiens) (UniProt P24723); experiment: Inhibition of wild-type human partial length PRKCH (S324 to P683 residues) expressed in bacterial expression system at 10 uM by Kinomescan method relative to control
[19] = biological target: Cyclin-dependent kinase 14 (Homo sapiens) (UniProt O94921); experiment: Inhibition of wild-type human full length PFTK1 (M1 to H451 residues) expressed in bacterial expression system at 10 uM by Kinomescan method relative to control
[20] = biological target: Protein kinase C theta type (Homo sapiens) (UniProt Q04759); experiment: Inhibition of wild-type human partial length PRKCQ (L350 to S706 residues) expressed in bacterial expression system at 10 uM by Kinomescan method relative to control
[21] = biological target: Mitogen-activated protein kinase 14 (Homo sapiens) (UniProt Q16539); experiment: Inhibition of wild-type human full length p38-alpha (M1 to S360 residues) expressed in bacterial expression system at 10 uM by Kinomescan method relative to control
[22] = biological target: Ribosomal protein S6 kinase alpha-3 (Homo sapiens) (UniProt P51812); experiment: Inhibition of wild-type human partial length C-terminal RSK2 kinase domain 2 (V402 to S715 residues) expressed in mammalian expression system at 10 uM by Kinomescan method relative to control
[23] = biological target: Ephrin type-B receptor 1 (Homo sapiens) (UniProt P54762); experiment: Inhibition of wild-type human partial length EPHB1 (P589 to T911 residues) expressed in bacterial expression system at 10 uM by Kinomescan method relative to control
[24] = biological target: RAC-alpha serine/threonine-protein kinase (Homo sapiens) (UniProt P31749); experiment: Inhibition of wild-type human partial length AKT1 expressed in bacterial expression system at 10 uM by Kinomescan method relative to control
[25] = biological target: Dual specificity protein kinase CLK2 (Homo sapiens) (UniProt P49760); experiment: Inhibition of wild-type human partial length CLK2 (D144 to R498 residues) expressed in bacterial expression system at 10 uM by Kinomescan method relative to control
[26] = tested on: Epidermal growth factor receptor (Homo sapiens), P00533 [UNDEFINED MUTATION]; experiment: Inhibition of human partial length EGFR L747-S752del/P753S mutant expressed in bacterial expression system at 10 uM by Kinomescan method relative to control
[27] = biological target: Casein kinase I isoform gamma-2 (Homo sapiens) (UniProt P78368); experiment: Inhibition of wild-type human full length CSNK1G2 (M1 to K415 residues) expressed in bacterial expression system at 10 uM by Kinomescan method relative to control

Chain of Mitogen-activated protein kinase kinase kinase 10 (Homo sapiens) (Q02779 whole entry, looked up, the tested form may be a part): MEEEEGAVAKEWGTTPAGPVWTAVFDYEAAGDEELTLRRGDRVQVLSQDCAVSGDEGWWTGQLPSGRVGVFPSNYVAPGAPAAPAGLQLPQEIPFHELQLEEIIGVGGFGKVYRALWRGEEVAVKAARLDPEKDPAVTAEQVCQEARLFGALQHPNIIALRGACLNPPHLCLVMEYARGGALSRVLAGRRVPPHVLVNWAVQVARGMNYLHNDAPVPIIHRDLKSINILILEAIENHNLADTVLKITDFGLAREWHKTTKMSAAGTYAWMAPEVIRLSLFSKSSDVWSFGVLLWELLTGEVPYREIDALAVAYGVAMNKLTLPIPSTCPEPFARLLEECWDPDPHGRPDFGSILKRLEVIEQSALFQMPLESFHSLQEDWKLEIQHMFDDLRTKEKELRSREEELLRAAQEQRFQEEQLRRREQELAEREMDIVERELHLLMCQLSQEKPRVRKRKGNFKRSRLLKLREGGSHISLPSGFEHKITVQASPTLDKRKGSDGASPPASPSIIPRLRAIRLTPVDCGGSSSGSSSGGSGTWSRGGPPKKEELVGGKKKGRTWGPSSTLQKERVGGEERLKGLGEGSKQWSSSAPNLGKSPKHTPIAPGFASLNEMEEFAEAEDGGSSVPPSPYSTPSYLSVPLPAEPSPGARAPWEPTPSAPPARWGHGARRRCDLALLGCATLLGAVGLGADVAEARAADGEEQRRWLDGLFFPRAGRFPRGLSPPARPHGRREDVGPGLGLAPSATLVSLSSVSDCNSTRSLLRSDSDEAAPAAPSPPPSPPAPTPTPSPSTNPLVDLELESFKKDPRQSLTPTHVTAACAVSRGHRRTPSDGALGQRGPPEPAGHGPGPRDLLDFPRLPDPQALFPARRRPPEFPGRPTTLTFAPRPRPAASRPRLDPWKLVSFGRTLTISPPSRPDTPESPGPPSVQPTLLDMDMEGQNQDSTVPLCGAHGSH
Chain of Protein kinase C eta type (Homo sapiens) (P24723 whole entry, the tested form may be a part): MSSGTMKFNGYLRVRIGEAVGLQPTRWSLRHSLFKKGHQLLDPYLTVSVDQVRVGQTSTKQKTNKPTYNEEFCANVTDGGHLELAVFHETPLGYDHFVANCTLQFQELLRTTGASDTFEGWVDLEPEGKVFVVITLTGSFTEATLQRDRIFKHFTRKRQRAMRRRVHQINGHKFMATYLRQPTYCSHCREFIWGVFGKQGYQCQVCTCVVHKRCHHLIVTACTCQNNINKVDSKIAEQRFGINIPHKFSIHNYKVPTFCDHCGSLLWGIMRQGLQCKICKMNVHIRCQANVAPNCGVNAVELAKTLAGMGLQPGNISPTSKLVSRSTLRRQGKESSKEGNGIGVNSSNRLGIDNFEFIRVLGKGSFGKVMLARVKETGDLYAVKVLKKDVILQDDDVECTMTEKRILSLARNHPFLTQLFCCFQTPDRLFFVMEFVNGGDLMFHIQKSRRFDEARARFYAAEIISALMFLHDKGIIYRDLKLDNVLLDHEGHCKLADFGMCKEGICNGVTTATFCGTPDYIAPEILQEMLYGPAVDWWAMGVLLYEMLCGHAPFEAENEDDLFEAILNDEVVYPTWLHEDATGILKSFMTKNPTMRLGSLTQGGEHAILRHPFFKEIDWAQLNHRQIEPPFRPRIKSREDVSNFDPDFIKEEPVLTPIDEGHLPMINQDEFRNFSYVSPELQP
Chain of Serine/threonine-protein kinase NLK (Homo sapiens) (Q9UBE8 whole entry, the tested form may be a part): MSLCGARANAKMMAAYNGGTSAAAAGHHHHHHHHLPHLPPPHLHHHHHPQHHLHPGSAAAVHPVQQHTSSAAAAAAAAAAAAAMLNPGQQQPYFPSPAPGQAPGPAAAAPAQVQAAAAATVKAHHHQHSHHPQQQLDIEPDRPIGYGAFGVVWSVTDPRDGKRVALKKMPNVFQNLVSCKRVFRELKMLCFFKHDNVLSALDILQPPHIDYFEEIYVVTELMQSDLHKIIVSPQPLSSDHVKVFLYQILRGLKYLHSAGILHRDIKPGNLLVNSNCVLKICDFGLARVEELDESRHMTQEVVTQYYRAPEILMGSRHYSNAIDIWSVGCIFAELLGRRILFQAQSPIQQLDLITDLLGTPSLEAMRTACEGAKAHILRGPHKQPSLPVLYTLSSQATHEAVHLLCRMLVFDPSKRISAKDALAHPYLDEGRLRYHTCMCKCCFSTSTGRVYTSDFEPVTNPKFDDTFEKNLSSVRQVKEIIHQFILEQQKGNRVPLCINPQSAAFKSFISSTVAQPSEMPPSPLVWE
Chain of Ephrin type-B receptor 1 (Homo sapiens) (P54762 whole entry, the tested form may be a part): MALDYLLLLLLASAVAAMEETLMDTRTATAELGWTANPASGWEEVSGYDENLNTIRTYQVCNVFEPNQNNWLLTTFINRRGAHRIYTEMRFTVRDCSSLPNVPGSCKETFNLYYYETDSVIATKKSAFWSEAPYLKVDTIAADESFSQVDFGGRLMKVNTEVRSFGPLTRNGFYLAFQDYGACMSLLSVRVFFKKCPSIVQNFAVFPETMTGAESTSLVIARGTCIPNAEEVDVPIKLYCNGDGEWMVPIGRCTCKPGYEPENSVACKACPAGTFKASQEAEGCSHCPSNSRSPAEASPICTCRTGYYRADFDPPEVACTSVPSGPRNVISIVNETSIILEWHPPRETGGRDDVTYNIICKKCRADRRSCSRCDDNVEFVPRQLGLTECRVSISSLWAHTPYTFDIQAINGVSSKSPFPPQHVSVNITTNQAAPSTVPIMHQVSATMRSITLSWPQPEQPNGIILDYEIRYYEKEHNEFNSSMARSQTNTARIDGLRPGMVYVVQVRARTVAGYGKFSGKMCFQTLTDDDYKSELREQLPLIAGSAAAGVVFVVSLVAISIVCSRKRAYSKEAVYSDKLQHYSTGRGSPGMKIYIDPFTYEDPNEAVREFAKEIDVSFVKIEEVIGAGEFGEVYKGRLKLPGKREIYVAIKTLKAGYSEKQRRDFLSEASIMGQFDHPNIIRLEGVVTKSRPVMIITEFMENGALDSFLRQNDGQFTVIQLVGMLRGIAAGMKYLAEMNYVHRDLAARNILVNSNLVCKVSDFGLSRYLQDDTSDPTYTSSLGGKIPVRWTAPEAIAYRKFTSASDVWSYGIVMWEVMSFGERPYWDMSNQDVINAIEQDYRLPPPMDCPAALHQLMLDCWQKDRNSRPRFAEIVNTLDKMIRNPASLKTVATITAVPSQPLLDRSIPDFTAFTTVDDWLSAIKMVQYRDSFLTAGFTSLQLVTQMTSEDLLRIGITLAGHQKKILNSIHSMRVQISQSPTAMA
Chain of Tyrosine-protein kinase ZAP-70 (Homo sapiens) (P43403 whole entry, the tested form may be a part): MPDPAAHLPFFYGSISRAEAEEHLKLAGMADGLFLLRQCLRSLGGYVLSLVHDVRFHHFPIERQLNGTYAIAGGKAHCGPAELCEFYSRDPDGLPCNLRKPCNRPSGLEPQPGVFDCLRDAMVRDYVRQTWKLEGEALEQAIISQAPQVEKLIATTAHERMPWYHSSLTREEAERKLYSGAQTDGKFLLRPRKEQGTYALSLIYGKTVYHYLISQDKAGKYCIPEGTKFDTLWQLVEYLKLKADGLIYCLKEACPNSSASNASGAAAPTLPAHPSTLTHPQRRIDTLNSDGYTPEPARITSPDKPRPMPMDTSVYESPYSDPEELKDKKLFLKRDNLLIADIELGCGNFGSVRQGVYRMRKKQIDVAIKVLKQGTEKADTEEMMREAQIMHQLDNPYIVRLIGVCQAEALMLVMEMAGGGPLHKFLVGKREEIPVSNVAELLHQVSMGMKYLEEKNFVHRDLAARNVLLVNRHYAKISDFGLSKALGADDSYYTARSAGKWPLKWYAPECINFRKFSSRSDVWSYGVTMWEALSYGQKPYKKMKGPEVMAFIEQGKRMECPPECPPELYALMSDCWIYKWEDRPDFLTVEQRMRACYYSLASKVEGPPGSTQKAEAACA
Chain of Tyrosine-protein kinase Fes/Fps (Homo sapiens) (P07332 whole entry, the tested form may be a part): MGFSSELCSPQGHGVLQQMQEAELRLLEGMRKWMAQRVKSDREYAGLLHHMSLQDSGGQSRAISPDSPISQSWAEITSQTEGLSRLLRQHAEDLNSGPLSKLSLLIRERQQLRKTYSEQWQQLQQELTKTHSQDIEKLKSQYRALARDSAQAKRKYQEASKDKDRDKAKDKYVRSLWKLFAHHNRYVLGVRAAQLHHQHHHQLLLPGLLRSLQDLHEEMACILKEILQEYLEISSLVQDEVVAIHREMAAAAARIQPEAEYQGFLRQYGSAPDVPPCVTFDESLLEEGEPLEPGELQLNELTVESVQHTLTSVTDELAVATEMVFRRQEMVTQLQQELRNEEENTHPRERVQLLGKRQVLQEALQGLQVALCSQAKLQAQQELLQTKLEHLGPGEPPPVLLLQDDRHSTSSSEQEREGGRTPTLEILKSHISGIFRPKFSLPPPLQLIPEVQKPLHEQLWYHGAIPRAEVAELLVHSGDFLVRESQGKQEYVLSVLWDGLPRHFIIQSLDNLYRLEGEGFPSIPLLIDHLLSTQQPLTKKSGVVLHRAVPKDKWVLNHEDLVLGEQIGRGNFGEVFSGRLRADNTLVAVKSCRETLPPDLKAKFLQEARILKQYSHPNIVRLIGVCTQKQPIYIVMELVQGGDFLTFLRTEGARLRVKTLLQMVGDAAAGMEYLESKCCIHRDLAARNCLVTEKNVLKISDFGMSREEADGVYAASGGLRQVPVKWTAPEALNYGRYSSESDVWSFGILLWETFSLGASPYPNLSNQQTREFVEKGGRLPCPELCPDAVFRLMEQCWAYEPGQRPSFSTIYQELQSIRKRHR
Chain of Mitogen-activated protein kinase 14 (Homo sapiens) (Q16539 whole entry, the tested form may be a part): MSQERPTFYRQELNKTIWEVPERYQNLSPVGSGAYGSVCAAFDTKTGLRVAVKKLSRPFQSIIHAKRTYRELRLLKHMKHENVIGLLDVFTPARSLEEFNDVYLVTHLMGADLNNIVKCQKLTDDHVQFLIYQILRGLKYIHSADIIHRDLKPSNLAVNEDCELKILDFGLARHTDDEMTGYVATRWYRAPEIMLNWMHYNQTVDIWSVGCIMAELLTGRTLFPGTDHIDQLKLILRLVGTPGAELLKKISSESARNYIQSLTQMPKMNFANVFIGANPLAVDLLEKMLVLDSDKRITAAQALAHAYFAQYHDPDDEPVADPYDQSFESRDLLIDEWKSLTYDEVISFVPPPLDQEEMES

How did the inhibition [1] turn out when O=C(Nc1cccc([C@@H]2CN(c3ncnc4[nH]ccc34)CCN2CCO)c1)Nc1c(F)cccc1N1CCCC1 was run?
The inhibition was 20%.

What about the inhibition [2] of the same molecule?
The inhibition was 100%.

What about the inhibition [3] of the same molecule?
The inhibition was 37%.

What about the inhibition [4] of the same molecule?
The inhibition was 80%.

And the IC50 [5]?
Its IC50 is 1 nM.

What about the inhibition [6] of the same molecule?
Its inhibition is 89%.

What about the inhibition [7] of the same molecule?
The inhibition was 97%.

And the inhibition [8]?
The inhibition was 100%.

What about the inhibition [9] of the same molecule?
The inhibition was 52%.

And the inhibition [10]?
The inhibition was 23%.

What about the inhibition [11] of the same molecule?
Its inhibition is 93%.

What about the inhibition [12] of the same molecule?
The inhibition was 86%.

And the inhibition [13]?
Its inhibition is 74%.

And the inhibition [14]?
Its inhibition is 100%.

Which results are given for O=C(Nc1cccc([C@H]2CCCN(c3ncnc4[nH]ccc34)C2)c1)Nc1ccccc1N1CCCC1?
inhibition [15]: 9%; inhibition [16]: 4.9%; inhibition [17]: 20%; inhibition [18]: 71%; inhibition [19]: 61%; inhibition [20]: 100%; inhibition [21]: 100%; inhibition [22]: 100%; inhibition [23]: 100%; inhibition [24]: 100%; inhibition [25]: 53%; inhibition [26]: 87%; inhibition [27]: 100%
